Test results as given in patent publication US8741849B2, “Kinase inhibitors and uses thereof” (priority 2007, dated 2014).

Tests used:
AMPK (r) = assay: kinase profiler assay (radiometric); format: biochemical, rat; conditions: @ = 100 μm peptide; less than 100 = kinase inhibition, greater than 100 = stimulation
Text: KIP peptides […] [SEQ ID NO: 142], […] [SEQ ID NO: 173], and […] [SEQ ID NO: 163] were utilized to profile a variety of different kinases. The kinase profiler assay services provided by Upstate, a part of Millipore Corporation (Billerica, Mass.), were utilized to conduct the kinase profiles. The kinase profiler assays, which are radiometric, are based on measuring the amount of radioactive transfer from an ATP (y-^33P-ATP) to a substrate peptide using known concentrations of kinase enzyme, inhibitor, ATP, and buffer at defined time points and temperatures. Details on the reaction conditions for each kinase are available at www.millipore.com/drugdiscovery/dd3/KinaseProfiler. […] ROCK-1(h) (5-10 mU) was incubated with 8 mM MOPS pH 7.0, 0.2 mM EDTA, 30 i.IM of the peptide […] [SEQ ID NO: 189], 10 mM Mg acetate and y-^33P-ATP (specific activity approximately 500 cpm/pmol, concentration as required) in a final reaction volume of 25 pl. The reaction was initiated by the addition of the MgATP mixture in the absence and presence of inhibitor compounds. […] The filtermat was washed three times for 5 minutes in 75 mM phosphoric acid, once in methanol, dried and counted by scintillation counting. […] Scintillation counts (radioactivity) directly correlate with kinase activity. […]

PKB β (h) = target: T1, PKB β (h) (Homo sapiens, UniProt P31751); assay: kinase profiler assay (radiometric); format: biochemical; conditions: read-out: Profile-1, PKB β (h)
T1 construct: purchased Upstate (Millipore) KinaseProfiler service
T1 sequence (P31751 whole entry): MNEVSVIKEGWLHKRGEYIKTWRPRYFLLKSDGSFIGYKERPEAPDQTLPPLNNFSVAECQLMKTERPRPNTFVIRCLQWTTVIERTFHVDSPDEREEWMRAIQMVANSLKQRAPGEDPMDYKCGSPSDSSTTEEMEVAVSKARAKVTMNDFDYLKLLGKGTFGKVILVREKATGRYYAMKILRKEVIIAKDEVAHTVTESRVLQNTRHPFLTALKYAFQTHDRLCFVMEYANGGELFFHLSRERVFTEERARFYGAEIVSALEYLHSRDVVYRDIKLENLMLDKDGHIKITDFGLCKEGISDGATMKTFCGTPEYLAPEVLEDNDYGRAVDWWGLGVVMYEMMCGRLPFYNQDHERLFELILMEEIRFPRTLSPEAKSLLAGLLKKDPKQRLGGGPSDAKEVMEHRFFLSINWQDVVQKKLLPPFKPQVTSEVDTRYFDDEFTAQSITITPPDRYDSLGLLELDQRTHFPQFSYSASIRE
Text: KIP peptides […] [SEQ ID NO: 142], […] [SEQ ID NO: 173], and […] [SEQ ID NO: 163] were utilized to profile a variety of different kinases. The kinase profiler assay services provided by Upstate, a part of Millipore Corporation (Billerica, Mass.), were utilized to conduct the kinase profiles. The kinase profiler assays, which are radiometric, are based on measuring the amount of radioactive transfer from an ATP (y-^33P-ATP) to a substrate peptide using known concentrations of kinase enzyme, inhibitor, ATP, and buffer at defined time points and temperatures. Details on the reaction conditions for each kinase are available at www.millipore.com/drugdiscovery/dd3/KinaseProfiler. […] ROCK-1(h) (5-10 mU) was incubated with 8 mM MOPS pH 7.0, 0.2 mM EDTA, 30 i.IM of the peptide […] [SEQ ID NO: 189], 10 mM Mg acetate and y-^33P-ATP (specific activity approximately 500 cpm/pmol, concentration as required) in a final reaction volume of 25 pl. The reaction was initiated by the addition of the MgATP mixture in the absence and presence of inhibitor compounds. After incubation for 40 minutes at room temperature, the reaction was stopped by the addition of 5) 11 of a 3% phosphoric acid solution. 10 pl of the reaction mixture then was spotted onto a P30 filtermat. The filtermat was washed three times for 5 minutes in 75 mM phosphoric acid, once in methanol, dried and counted by scintillation counting. Where the kinase is uninhibited, the kinase phosphorylates a positively charged substrate with radioactive ATP, which then binds to a negatively charged filter membrane. Scintillation counts (radioactivity) directly correlate with kinase activity. […] All profile data less than 100 indicate kinase inhibition while data greater than 100 indicate kinase stimulation.

MAPKAP kinase II (MK2) = MAPKAP kinase II (MK2) (Homo sapiens, UniProt P49137); assay: Omnia Lysate Assay for MAPKAP-K2: MK2 reaction velocity; format: biochemical; conditions: same assay conditions as Example 1
Chain of MAPKAP kinase II (MK2) (P49137 whole entry, species assumed): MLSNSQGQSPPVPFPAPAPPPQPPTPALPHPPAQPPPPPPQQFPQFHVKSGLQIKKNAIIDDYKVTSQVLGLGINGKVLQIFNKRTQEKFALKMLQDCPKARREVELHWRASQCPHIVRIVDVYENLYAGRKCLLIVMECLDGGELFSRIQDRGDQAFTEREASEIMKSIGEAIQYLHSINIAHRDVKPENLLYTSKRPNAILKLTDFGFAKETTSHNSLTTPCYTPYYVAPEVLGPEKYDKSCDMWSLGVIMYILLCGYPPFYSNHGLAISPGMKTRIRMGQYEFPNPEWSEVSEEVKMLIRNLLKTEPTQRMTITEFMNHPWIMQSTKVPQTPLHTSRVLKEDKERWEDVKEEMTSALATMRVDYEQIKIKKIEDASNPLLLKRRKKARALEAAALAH
Procedure: Using the Omnia™ Lysate Assay for MAPKAP-K2 kit (Invitrogen, Carlsbad, Calif.), the reaction velocity for MK2 was determined in the presence and absence of each of the peptides listed in Table 2. Briefly, inhibitor peptide concentrations at 12.5 μmol, 25 μmol, 50 μmol and 100 μmol were evaluated. The kit contains a proprietary reaction buffer to which the following are added (final concentrations are given): 1 mM ATP, 0.2 mM DTT, 10 μM MAPKAP-K2 Sox-modified peptide substrate, 5 ng MK2, and the peptide inhibitor of interest (final volume of 50 μL). The reactions were performed in the wells of a low protein-binding 96-well plate provided with the kit, and fluorescence readings at 485 nm were taken every 30 seconds for 20 minutes in a Molecular Devices M5 Spectrophotometer. A peptide having the sequence […]
The MK2 inhibition activity of […] [SEQ ID NO: 134] transduction domain was compared with the MK2 inhibition activity of other known transduction domains—[…] [SEQ ID NO: 135] and […] [SEQ ID NO: 190]. The transduction domains were tested for MK2 activity using the same assay conditions as Example 1.
A set of MK2 inhibitor peptides having transduction domains was synthesized (see Table 5). Variants included peptides with the […] [SEQ ID NO: 134] transduction domain and alanine substituted for asparagine, alanine substituted for glycine, or both alanine substitutions in the therapeutic domain. The same peptides with the […] [SEQ ID NO: 135] transduction domain also were prepared. The reaction velocities of these variants were compared to the reaction velocity of a blank with no inhibitor added.

A549 lung cancer cells = assay: Toxicity testing on cancer cell lines (MTT); format: cell-based; conditions: 72 hours, n=4, read-out: Cell Line IC50, A549
Procedure: (§1) The seven cell lines were: estrogen dependent MCF-7 breast cancer cells, non estrogen dependent MDA 231 breast cancer cells, SF 539 central nervous system cancer cells, HT29 colon cancer cells, Paca 2 pancreatic cancer cells, PC3 prostate cancer cells, and A549 lung cancer cells. For each cell line, exponentially growing cells were trypsinized and seeded into individual wells of a 96-well plate. Cells were maintained in a humidified, 5% CO2 incubator at 37° C. for 24 hours. The next day, fresh media was added along with 1 μl of a stock solution of peptide to give final peptide concentrations of 0.3 μM, 1 μM, 3 μM, 10 μM, 30 μM, and 100 μM (n=4). Doxorubicin was tested as a positive control. After incubating the cells for 72 hours, to each well was added 20 μl of 0.5% MTT {3-([…])-2,5 diphenyl tetrazolium bromide} solution. The plates then were incubated for an additional 4 hours, at which time the absorbance at 570 nm was measured for each well using a microplate reader. The absorbance was plotted as function of peptide concentration, and IC50 values were calculated for each peptide for each cell line.

HT29 colon cancer cells = assay: Toxicity testing on cancer cell lines (MTT); format: cell-based; conditions: 72 hours, n=4, read-out: Cell Line IC50, HT29
Procedure: as §1

[1] = test system: PC3 prostate cancer cells; assay: Toxicity testing on cancer cell lines (MTT); format: cell-based; conditions: 72 hours, n=4, read-out: Cell Line IC50, PC3
Procedure: as §1

[2] = test system: Paca 2 pancreatic cancer cells; assay: Toxicity testing on cancer cell lines (MTT); format: cell-based; conditions: 72 hours, n=4, read-out: Cell Line IC50, Paca 2
Procedure: as §1

[3] = test system: SF 539 central nervous system cancer cells; assay: Toxicity testing on cancer cell lines (MTT); format: cell-based; conditions: 72 hours, n=4, read-out: Cell Line IC50, SF 539
Procedure: as §1

[4] = test system: estrogen dependent MCF-7 breast cancer cells; assay: Toxicity testing on cancer cell lines (MTT); format: cell-based; conditions: 72 hours, n=4, read-out: Cell Line IC50, MCF-7
Procedure: as §1

[5] = test system: non estrogen dependent MDA 231 breast cancer cells; assay: Toxicity testing on cancer cell lines (MTT); format: cell-based; conditions: 72 hours, n=4, read-out: Cell Line IC50, MDA 231
Procedure: as §1

[6] = test system: MCF-7 breast cancer cells; assay: Evaluation of apoptosis (Hoescht, Annexin V, propidium iodide staining); format: cell-based; conditions: MCF-7 cells, 24 hours, 3 μM or 10 μM
Procedure: MCF-7 breast cancer cells were seeded in individual wells of a 96-well plate and were maintained for 24 hours in a humidified, 5% CO2 incubator at 37° C. The next day, fresh media was added along with 1 μl of a stock solution of KIP peptide […] [SEQ ID NO: 166] to give a final concentration of 3 μM or 10 μM (n=4). After incubating the cells for 24 hours, cells were treated with Hoescht dye for nuclear staining, propidium iodide to stain for DNA from necrotic cells, and Annexin V to visualize apoptotic cells.

## CC(C)C[C@H](NC(=O)[C@H](C)NC(=O)[C@H](CCCCN)NC(=O)[C@H](CCCNC(=N)N)NC(=O)[C@H](Cc1ccc(O)cc1)NC(=O)[C@H](CC(C)C)NC(=O)[C@H](CCCNC(=N)N)NC(=O)[C@H](C)NC(=O)[C@H](C)NC(=O)[C@H](CC(C)C)NC(=O)[C@H](CCCCN)NC(=O)[C@H](C)NC(=O)[C@@H](N)Cc1ccccc1)C(=O)N[C@@H](C)C(=O)N[C@@H](CCCNC(=N)N)C(=O)N[C@@H](CCC(N)=O)C(=O)N[C@@H](CC(C)C)C(=O)NCC(=O)N[C@H](C(=O)N[C@@H](C)C(=O)N[C@@H](C)C(=O)O)C(C)C
AMPK (r)
  Profile-1, AMPK (r): 101
PKB β (h)
  activity at 100 µM: 16%

## CC(C)C[C@H](NC(=O)[C@H](C)NC(=O)[C@H](CCCCN)NC(=O)[C@H](CCCNC(=N)N)NC(=O)[C@H](Cc1ccc(O)cc1)NC(=O)[C@H](CC(C)C)NC(=O)[C@H](CCCNC(=N)N)NC(=O)[C@H](C)NC(=O)[C@H](C)NC(=O)[C@H](CC(C)C)NC(=O)[C@H](CCCCN)NC(=O)[C@H](C)NC(=O)[C@H](Cc1ccccc1)NC(=O)[C@H](C)NC(=O)[C@@H](N)CCCCN)C(=O)N[C@@H](C)C(=O)N[C@@H](CCCNC(=N)N)C(=O)N[C@@H](CCC(N)=O)C(=O)N[C@@H](CC(C)C)C(=O)NCC(=O)N[C@H](C(=O)N[C@@H](C)C(=O)N[C@@H](C)C(=O)O)C(C)C
AMPK (r)
  Profile-1, AMPK (r): 118
PKB β (h)
  activity at 100 µM: 28%

## CC[C@H](C)[C@H](NC(=O)[C@H](CCCNC(=N)N)NC(=O)[C@H](CCCNC(=N)N)NC(=O)[C@H](CC(C)C)NC(=O)[C@H](Cc1c[nH]c2ccccc12)NC(=O)[C@H](C)NC(=O)[C@H](CCCCN)NC(=O)[C@@H](NC(=O)[C@H](CCCNC(=N)N)NC(=O)[C@H](CCCNC(=N)N)NC(=O)[C@H](CC(C)C)NC(=O)[C@@H](N)Cc1c[nH]c2ccccc12)[C@@H](C)CC)C(=O)N[C@@H](CCCCN)C(=O)N[C@@H](C)C(=O)O
MAPKAP kinase II (MK2)
  MK2 inhibition (in words): inhibited MK2 significantly more than KKKALNRQLGVAA

## CC[C@H](C)[C@H](NC(=O)[C@H](CCCCN)NC(=O)[C@H](CCCCN)NC(=O)[C@H](CC(C)C)NC(=O)[C@H](Cc1c[nH]c2ccccc12)NC(=O)[C@H](C)NC(=O)[C@H](CCCCN)NC(=O)[C@@H](NC(=O)[C@H](CCCNC(=N)N)NC(=O)[C@H](CCCNC(=N)N)NC(=O)[C@@H](N)Cc1c[nH]cn1)[C@@H](C)CC)C(=O)N[C@@H](CCCCN)C(=O)N[C@@H](C)C(=O)N[C@@H](CC(C)C)C(=O)N[C@@H](C)C(=O)N[C@@H](CCCNC(=N)N)C(=O)N[C@@H](CCC(N)=O)C(=O)N[C@@H](CC(C)C)C(=O)NCC(=O)N[C@H](C(=O)N[C@@H](C)C(=O)N[C@@H](C)C(=O)O)C(C)C [Peptide 1]
A549 lung cancer cells
  IC50: 8.7 µM
HT29 colon cancer cells
  IC50: 6.7 µM
[1]
  IC50: 6 µM
[2]
  IC50: 9 µM
[3]
  IC50: 4.3 µM
[4]
  IC50: 1.6 µM
[5]
  IC50: 9.3 µM
[6]
  Annexin V staining relative to propidium iodide staining (apoptosis): annexin V staining was much more intense than propidium iodide staining

## N=C(N)NCCC[C@H](NC(=O)[C@H](CCCNC(=N)N)NC(=O)[C@H](CCCNC(=N)N)NC(=O)[C@H](CCC(N)=O)NC(=O)[C@H](CCCNC(=N)N)NC(=O)[C@H](CCCNC(=N)N)NC(=O)[C@H](CCCCN)NC(=O)[C@H](CCCCN)NC(=O)[C@H](CCCNC(=N)N)NC(=O)CNC(=O)[C@@H](N)Cc1ccc(O)cc1)C(=O)O [reference compound]
MAPKAP kinase II (MK2)
  MK2 inhibition (in words): also inhibit MK2 but not nearly as much as WLRRIKAWLRRIKA
